According to patent US20120129811A1, “TRICYCLIC INHIBITORS OF PRO-MATRIX METALLOPROTEINASE ACTIVATION” (priority 2010, published 2012):
pIC50, pKd: −log10 of the molar value. Where a name gives a salt, the structure may show the parent alone.

Legend:
[1] = biological target: T1, proMMP9(20-445;ΔFnII) (SEQ ID NO:6) (Homo sapiens, UniProt P14780, DEL216-390); assay: ThermoFluor binding assay with proMMP9(20-445;ΔFnII)
T1 construct: start methionine (N); made in house; host or cells: E. coli BL21(DE3) RIL
T1 sequence (P14780 with tags, fused parts or gaps DEL216-390): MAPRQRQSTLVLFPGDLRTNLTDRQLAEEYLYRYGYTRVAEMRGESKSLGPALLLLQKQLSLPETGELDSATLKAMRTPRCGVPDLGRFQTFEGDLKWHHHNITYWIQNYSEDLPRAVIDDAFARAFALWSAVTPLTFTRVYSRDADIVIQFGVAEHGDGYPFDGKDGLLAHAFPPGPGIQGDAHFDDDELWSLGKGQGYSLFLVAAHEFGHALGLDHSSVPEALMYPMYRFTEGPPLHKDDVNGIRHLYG
Protocol: (§1) The ThermoFluor® (TF) assay is a 384-well plate-based binding assay that measures thermal stability of proteins (Biomol Screen 2001, 6, 429-40; Biochemistry 2005, 44, 5258-66). The experiments were carried out using instruments available from Johnson & Johnson Pharmaceutical Research & Development, LLC. TF dye used in all experiments was […] (1,8-ANS) (Invitrogen: A-47).
(§2) Compounds were arranged in a pre-dispensed plate (Greiner Bio-one: 781280), wherein compounds were serially diluted in 100% DMSO across 11 columns within a series. Columns 12 and 24 were used as DMSO reference and contained no compound. For multiple compound concentration-response experiments, the compound aliquots (50 nL) were robotically predispensed directly into black 384-well polypropylene PCR microplates (Abgene: TF-0384/k) using a Cartesian Hummingbird liquid handler (DigiLab, Holliston, Mass.). Following compound dispense, protein and dye solutions were added to achieve the final assay volume of 3 μL. The assay solutions were overlayed with 1 μL of silicone oil (Fluka, type DC 200: 85411) to prevent evaporation.
(§3) Assay plates were robotically loaded onto a thermostatically controlled PCR-type thermal block and then heated from 40 to 90° C. at a ramp-rate of 1° C./min for all experiments. Fluorescence was measured by continuous illumination with UV light (Hamamatsu LC6) supplied via fiber optics and filtered through a band-pass filter (380-400 nm; >60D cutoff). Fluorescence emission of the entire 384-well plate was detected by measuring light intensity using a CCD camera (Sensys, Roper Scientific) filtered to detect 500±25 nm, resulting in simultaneous and independent readings of all 384 wells. A single image with 20-sec exposure time was collected at each temperature, and the sum of the pixel intensity in a given area of the assay plate was recorded vs temperature and fit to standard equations to yield the Tm (J Biomol Screen 2001, 6, 429-40).
(§4) Thermodynamic parameters necessary for fitting compound binding for each proMMP were estimated by differential scanning calorimetry (DSC) and from ThermoFluor® data. The heat capacity of unfolding for each protein was estimated from the molecular weight and from ThermoFluor® dosing data.
ThermoFluor® with proMMP9(20-445; ΔFnII (SEQ ID NO:6)
The protein sample preparations included a desalting buffer exchange step via a PD-10 gravity column (GE Healthcare). The desalting buffer exchange was performed prior to diluting the protein to the final assay concentration of 2.8 μM proMMP9(20-445;ΔFnII) (SEQ ID NO:6). The concentration of proMMP9(20-445;ΔFnII) (SEQ ID NO:6) was determined spectrophotometrically based on a calculated extinction coefficient of ε280=39880 M^−1 cm^−1, a calculated molecular weight of 28.2 kDa, and calculated pI of 5.5. ThermoFluor® reference conditions were define as follows: 80 μg/mL (2.8 μM) proMMP9(20-445;ΔFnII) (SEQ ID NO:6), 50 μM 1,8-ANS, pH 7.0 Buffer (50 mM HEPES pH 7.0, 100 mM NaCl, 0.001% Tween-20, 2.5 mM MgCl2, 300 μM CaCl2). The thermodynamic parameters for proMMP9(20-445;ΔFnII) (SEQ ID NO:6) are as follows: Tm (° C.)=72 (+/−0.1), ΔUH(Tm) (cal mol^−1)=160000(+/−5000), ΔUSTm (cal mol^−1 K^−1)=434, ΔUCp (cal mol^−1 K^−1)=2400.

[2] = biological target: T2, proMMP9(67-444;ΔFnII) (SEQ ID NO:5) (Homo sapiens, UniProt P14780, DEL216-390); assay: ThermoFluor binding assay with proMMP9(67-444;ΔFnII)
T2 construct: start methionine (N); made in house; host or cells: E. coli BL21(DE3) RIL
T2 sequence (P14780 with tags, fused parts or gaps DEL216-390): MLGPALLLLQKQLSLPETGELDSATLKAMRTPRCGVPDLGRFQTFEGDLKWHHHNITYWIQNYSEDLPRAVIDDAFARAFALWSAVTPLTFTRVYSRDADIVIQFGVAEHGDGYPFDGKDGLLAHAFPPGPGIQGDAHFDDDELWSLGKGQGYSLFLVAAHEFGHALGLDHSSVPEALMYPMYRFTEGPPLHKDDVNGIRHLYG
Protocol: as §1, §2, §3, §4
ThermoFluor® with proMMP9(67-444;ΔFnM (SEQ ID NO:5)
The protein sample preparations had to include a desalting buffer exchange step via a PD-10 gravity column (GE Healthcare). The desalting buffer exchange was performed prior to diluting the protein to the final assay concentration of 3.5 μM proMMP9(67-444;ΔFnII) (SEQ ID NO:5). The concentration of proMMP9(67-444;ΔFnII) (SEQ ID NO:5) was determined spectrophotometrically based on a calculated extinction coefficient of ε280=33900 M^−1 cm^−1, a calculated molecular weight of 22.6 kDa, and calculated pI of 5.20. ThermoFluor® reference conditions were defined as follows: 80 μg/mL (3.5 μM) proMMP9(67-444;ΔFnII) (SEQ ID NO:5), 50 μM 1,8-ANS, pH 7.0 Buffer (50 mM HEPES pH 7.0, 100 mM NaCl, 0.001% Tween-20, 2.5 mM MgCl2, 300 μM CaCl2). The thermodynamic parameters for proMMP9(67-444;ΔFnII) (SEQ ID NO:5) are as follows: Tm (° C.)=63 (+/−0.1), ΔUH(Tm)(cal mol^−1)=105000(+/−5000), ΔUS(Tm) (cal mol^−1 K^−1)=450, ΔUCp (cal mol^−1 K^−1)=2000.

[3] = biological target: T3, full-length proMMP9(1-707) activation by catalytic MMP3 (Homo sapiens, UniProt P14780, R574P); assay: proMMP9/MMP3 P126 Activation Assay; type: biochemical
T3 construct: made in house; host or cells: proMMP9: HEK293 (secreted); MMP3: E. coli
Protocol: proMMP9/MMP3 P126 Activation Assay
The reaction volume was 50 μL. […] Reactivity of residual MMP3 towards P-126 substrate was minimal under these conditions.

T3 sequence (P14780 20-707 R574P): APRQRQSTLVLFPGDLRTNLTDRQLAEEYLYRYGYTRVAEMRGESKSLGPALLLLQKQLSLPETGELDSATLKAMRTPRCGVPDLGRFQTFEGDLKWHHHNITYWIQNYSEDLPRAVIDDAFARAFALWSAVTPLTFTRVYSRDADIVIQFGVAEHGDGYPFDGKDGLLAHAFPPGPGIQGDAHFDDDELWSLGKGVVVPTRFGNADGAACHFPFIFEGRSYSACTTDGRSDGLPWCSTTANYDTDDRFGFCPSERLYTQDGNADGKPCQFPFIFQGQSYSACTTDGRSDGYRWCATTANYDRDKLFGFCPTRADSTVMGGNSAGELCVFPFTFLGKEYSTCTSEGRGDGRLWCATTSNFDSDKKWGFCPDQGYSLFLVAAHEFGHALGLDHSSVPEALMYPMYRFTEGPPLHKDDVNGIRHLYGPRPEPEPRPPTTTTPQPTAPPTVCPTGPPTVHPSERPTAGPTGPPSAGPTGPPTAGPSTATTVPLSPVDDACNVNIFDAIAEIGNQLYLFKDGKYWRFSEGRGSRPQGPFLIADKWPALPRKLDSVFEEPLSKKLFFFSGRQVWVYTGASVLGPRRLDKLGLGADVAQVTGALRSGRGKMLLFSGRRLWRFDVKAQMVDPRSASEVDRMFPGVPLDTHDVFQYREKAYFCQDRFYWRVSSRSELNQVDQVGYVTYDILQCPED

Compound | pKd [1] | pKd [2] | pIC50 [3]
CC(C)Oc1ccc(C(N)=O)cc1Nc1nc2c(ccc3[nH]nnc32)s1 [Example 47, 4-Isopropoxy-3-(3H-thiazolo[4′,5′:3,4]benzo[1,2-d][1,2,3]triazol-7-ylamino)-benzamide.HCl] | 6.00 | 5.80 | 6.22
COc1c(F)cc(C(N)=O)cc1Nc1nc2c(ccc3c2ncn3C)s1 [Example 48, 3-Fluoro-4-methoxy-5-(6-methyl-6H-imidazo[4′,5′:3,4]benzo[2,1-d]thiazol-2-ylamino)-benzamide.HCl] | 5.72 | 6.09 | 6.44
COc1ccc(NC(C)=O)cc1Nc1nc2c(ccc3c2ncn3C)s1 [Example 49, N-[4-Methoxy-3-(6-methyl-6H-imidazo[4′,5′:3,4]benzo[2,1-d]thiazol-2-ylamino)-phenyl]-acetamide.HCl] | 5.34 | 5.80 | 5.89
COc1ccc(C(F)(F)F)cc1Nc1nc2c(ccc3c2ncn3C)s1 [Example 50, (2-Methoxy-5-trifluoromethyl-phenyl)-(6-methyl-6H-imidazo[4′,5′: 3,4]benzo[2,1-d]thiazol-2-yl)-amine.HCl] | 5.52 | 5.82 | 5.96
COc1c(Nc2nc3c(ccc4c3ncn4C)s2)cc(C(N)=O)cc1C(F)(F)F [Example 53, 4-Methoxy-3-(6-methyl-6H-imidazo[4′,5′:3,4]benzo[2,1-d]thiazol-2-ylamino)-5-trifluoromethyl-benzamide.HCl] | 5.40 | 5.21 | 5.38
Cn1cnc2c3nc(Nc4cc(S(N)(=O)=O)ccc4OC(F)(F)F)sc3ccc21 [Example 64, 3-(6-Methyl-6H-imidazo[4′,5′:3,4]benzo[2,1-d]thiazol-2-ylamino)-4-trifluoromethoxy-benzenesulfonamide.HCl] | 6.01 | 6.05 | 6.82
Cn1cnc2c3nc(Nc4cc(C(N)=O)ccc4OC(F)(F)F)sc3ccc21 [Example 65, 3-(6-Methyl-6H-imidazo[4′,5′:3,4]-benzo[2,1-d]thiazol-2-ylamino)-4-trifluoromethoxy-benzamide.HCl] | 7.11 | 6.60 | 6.82
CCOP(=O)(OCC)c1ccc(OC)c(Nc2nc3c(ccc4c3ncn4C)s2)c1 [Example 66, [4-Methoxy-3-(6-methyl-6H-imidazo[4′,5′:3,4]benzo[2,1-d]thiazol-2-ylamino)-phenyl]-phosphonic acid diethyl ester.HCl] | 5.23 | 5.77 | 5.64
COc1ccc(C#N)cc1Nc1nc2c(ccc3c2ncn3C)s1 [Example 67, 4-Methoxy-3-(6-methyl-6H-imidazo[4′,5′:3,4]benzo[2,1-d]thiazol-2-ylamino)-benzonitrile.HCl] | 7.06 | 7.11 | 7.00
COc1ccc(P(=O)(O)O)cc1Nc1nc2c(ccc3c2ncn3C)s1 [Example 68, [4-Methoxy-3-(6-methyl-6H-imidazo[4′,5′:3,4]benzo[2,1-d]thiazol-2-ylamino)-phenyl]-phosphonic acid.HCl] | 5.12 | 4.92 | 5.12
COc1ccc(Br)cc1Nc1nc2c(ccc3c2ncn3C)s1 [Example 69, (5-Bromo-2-methoxy-phenyl)-(6-methyl-6H-imidazo[4′,5%3,4]benzo[2,1-d]thiazol-2-yl)-amine.HCl] | 6.37 | 6.66 | 6.52
COc1ccc(-c2cn[nH]c2)cc1Nc1nc2c(ccc3c2ncn3C)s1 [Example 70, [2-Methoxy-5-(1H-pyrazol-4-yl)-phenyl]-(6-methyl-6H-imidazo[4′,5%3,4]benzo[2,1-d]thiazol-2-yl)-amine.HCl] | 6.25 | 6.92 | 6.51
CCN(CC)S(=O)(=O)c1ccc(OC)c(Nc2nc3c(ccc4c3ncn4C)s2)c1 [Example 71, N,N-Diethyl-4-methoxy-3-(6-methyl-6H-imidazo[4′,5′:3,4]-benzo[2,1-d]thiazol-2-ylamino)-benzenesulfonamide.HCl] | 5.70 | 5.80 | 5.82
COc1ccc(S(=O)(=O)N2CCCC2)cc1Nc1nc2c(ccc3c2ncn3C)s1 [Example 72, [2-Methoxy-5-(pyrrolidine-1-sulfonyl)-phenyl]-(6-methyl-6H-imidazo[4′,5′:3,4]benzo[2,1-d]thiazol-2-yl)-amine.HCl] | 5.68 | 5.80 | 6.34
Cn1cnc2c(Nc3nc4c(ccc5c4ncn5C)s3)cccc21 [Example 73, (1-Methyl-1H-benzoimidazol-4-yl)-(6-methyl-6H-imidazo[4′,5′:3,4]-benzo[2,1-d]thiazol-2-yl)-amine.HCl] | 4.89 | 5.12 | 5.24
COc1ncccc1Nc1nc2c(ccc3c2ncn3C)s1 [Example 74, (2-Methoxy-pyridin-3-yl)-(6-methyl-6H-imidazo[4′,5′:3,4]-benzo[2,1-d]thiazol-2-yl)-amine.HCl] | 5.22 | 5.43 | 5.33
Cn1cnc2c3nc(Nc4cccnc4)sc3ccc21 [Example 75, (6-Methyl-6H-imidazo[4′,5′:3,4]-benzo[2,1-d]thiazol-2-yl)-pyridin-3-yl-amine.HCl] | < 4.02 | 4.82 | ~4.74
COc1ccc([N+](=O)[O-])cc1Nc1nc2c(ccc3c2ncn3C)s1 [Example 76, (2-Methoxy-5-nitro-phenyl)-(6-methyl-6H-imidazo[4′,5′:3,4]benzo[2,1-d]thiazol-2-yl)-amine.HCl] | 6.28 | 6.42 | 7.00
